Measured values reported in patent US9938273B2 (Plexxikon Inc., priority 2015, dated 2018).

Columns and labels:
[1] = target: T1, BA/F3-FLT3-ITD + D835Y cells (Homo sapiens, UniProt P36888, D835Y, cells depend on it, form not given); test: Cell proliferation assay (CellTiter-Glo), engineered BA/F3 cells; format: cell-based, murine; conditions: BaF3 FLT3 ITD/D835Y cells, 3d-Growth; read-out: BaF3_FLT3 ITD/D835Y 3d-Growth: IC50
T1 sequence (P36888 1-993 D835Y): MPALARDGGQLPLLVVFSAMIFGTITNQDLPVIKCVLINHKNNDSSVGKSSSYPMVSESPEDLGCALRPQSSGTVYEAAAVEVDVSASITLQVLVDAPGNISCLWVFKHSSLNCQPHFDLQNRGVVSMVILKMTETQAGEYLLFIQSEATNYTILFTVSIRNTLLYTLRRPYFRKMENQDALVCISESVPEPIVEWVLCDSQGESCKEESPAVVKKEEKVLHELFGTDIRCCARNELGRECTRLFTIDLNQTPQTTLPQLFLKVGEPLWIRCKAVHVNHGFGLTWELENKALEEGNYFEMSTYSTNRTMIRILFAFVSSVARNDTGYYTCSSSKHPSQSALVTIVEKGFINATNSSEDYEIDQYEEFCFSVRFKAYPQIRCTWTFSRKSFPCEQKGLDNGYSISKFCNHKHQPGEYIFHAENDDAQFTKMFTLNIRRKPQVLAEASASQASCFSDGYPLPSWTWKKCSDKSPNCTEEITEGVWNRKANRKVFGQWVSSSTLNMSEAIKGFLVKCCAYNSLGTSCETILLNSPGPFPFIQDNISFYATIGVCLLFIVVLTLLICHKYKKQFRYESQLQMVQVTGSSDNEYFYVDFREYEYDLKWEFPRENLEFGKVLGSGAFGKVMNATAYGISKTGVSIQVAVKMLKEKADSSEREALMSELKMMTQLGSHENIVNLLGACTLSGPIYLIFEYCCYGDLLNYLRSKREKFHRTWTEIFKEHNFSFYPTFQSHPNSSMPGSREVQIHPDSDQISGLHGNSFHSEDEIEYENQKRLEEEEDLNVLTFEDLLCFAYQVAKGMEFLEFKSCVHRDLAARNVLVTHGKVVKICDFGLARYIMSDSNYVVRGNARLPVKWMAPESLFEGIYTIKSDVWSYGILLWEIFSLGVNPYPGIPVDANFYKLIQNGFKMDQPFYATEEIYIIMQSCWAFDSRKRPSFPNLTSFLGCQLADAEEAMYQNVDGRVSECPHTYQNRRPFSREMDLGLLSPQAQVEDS
Source text: The FLT3 inhibitors may be assessed using the MOLM-14, Acute Myeloid Leukemia cell line that endogenously expresses FLT3 ITD or derivatives of the human FLT3 AML cell line which acquired the D835Y (activation loop) of F691L (gatekeeper) mutation after selection in escalating doses of the FLT3 Inhibitor AC220. FLT3 inhibitors may also be assessed using cells that are engineered to express mutant FLT3. For engineered cells, murine Ba/F3 cells were transfected with full-length FLT3 ITD/D835Y mutations. The parental BA/F3 cells are dependent upon Interleukin-3 (IL-3) for survival, and introduction of the FLT3 constructs rendered these cells dependent upon FLT3 kinase activity when cultured in the absences of IL-3. Engineered BA/F3 cell growth assays can be performed in either the […] of IL-3, to assess the compound inhibition of FLT3 or to detect the presence of off-target activity, respectively. Inhibitors of FLT3 kinase activity reduce or eliminate the FLT3 oncogenic signaling, resulting in reduced cell proliferation. This inhibition is measured as a function of compound concentration to asses IC50 values.
Cell lines used in proliferation assays are as follows in Table 3:
Cells were seeded at 1×10^4 cells per well of a 96 well cell culture plate in 50 μl of cell culture medium. Compounds were dissolved in DMSO, typically at a concentration of 0.5 mM and were serially diluted 1:3 for a total of eight points and added to the cells to final concentrations of […], 0.0041, 0.0014 and 0.00046 μM in 100 μl cell culture medium (final concentration 0.2% DMSO). […] The cells were incubated at 37° C., 5% CO2 for three days. CellTiter-Glo Buffer (Promega Cell Viability Assay catalog #G7573) and substrate were equilibrated to room temperature, and enzyme/substrate Recombinant Firefly Luciferase/Beetle Luciferin was reconstituted. The cell plates were equilibrated to room temperature for 30 minutes, then lysed by addition of an equivalent volume of the Celltiter-Glo Reagent. The plate was mixed for 10 minutes on a plate shaker to lyse the cells. The plates were read on a Tecan M1000 using Luminescence protocol modified to read 0.1 s per well. The luminescence reading assesses the ATP content, which correlates directly with cell number such that the reading as a function of compound concentration was used to determine the IC50 value.

c-KIT = target: T2, c-KIT (Homo sapiens, UniProt P10721); test: AlphaScreen kinase assay with recombinant enzyme, c-KIT; format: biochemical; conditions: 100ATP, 8pt, GMean
T2 construct: purchased Millipore 14-559K
T2 sequence (P10721 26-976): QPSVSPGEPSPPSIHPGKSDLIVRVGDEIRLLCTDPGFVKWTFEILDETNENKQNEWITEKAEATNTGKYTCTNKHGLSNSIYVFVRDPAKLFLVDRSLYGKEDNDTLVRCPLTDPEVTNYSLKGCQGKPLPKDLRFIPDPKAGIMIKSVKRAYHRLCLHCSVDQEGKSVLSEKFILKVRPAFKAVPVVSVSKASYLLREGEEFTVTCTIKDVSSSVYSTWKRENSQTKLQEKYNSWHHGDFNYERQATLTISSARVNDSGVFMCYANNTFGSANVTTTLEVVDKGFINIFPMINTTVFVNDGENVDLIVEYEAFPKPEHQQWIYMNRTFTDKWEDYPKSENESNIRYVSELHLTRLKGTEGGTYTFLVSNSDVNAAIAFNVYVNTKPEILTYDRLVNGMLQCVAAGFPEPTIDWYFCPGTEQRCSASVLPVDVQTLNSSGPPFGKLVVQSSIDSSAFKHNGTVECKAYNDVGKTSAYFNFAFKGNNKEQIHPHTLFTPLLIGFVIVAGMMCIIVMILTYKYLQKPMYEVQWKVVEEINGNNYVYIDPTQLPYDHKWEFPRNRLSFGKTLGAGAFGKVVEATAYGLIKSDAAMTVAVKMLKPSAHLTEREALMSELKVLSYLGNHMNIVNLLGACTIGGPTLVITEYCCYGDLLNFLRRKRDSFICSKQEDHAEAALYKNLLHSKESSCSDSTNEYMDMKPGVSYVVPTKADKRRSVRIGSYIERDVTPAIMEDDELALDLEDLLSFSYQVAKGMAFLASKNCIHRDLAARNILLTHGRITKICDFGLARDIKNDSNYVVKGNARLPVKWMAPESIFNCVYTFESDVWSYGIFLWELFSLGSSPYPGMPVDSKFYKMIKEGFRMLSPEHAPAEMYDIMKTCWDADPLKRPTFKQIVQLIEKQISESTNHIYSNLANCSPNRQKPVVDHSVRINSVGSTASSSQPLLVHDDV
In short: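 AlphaScreen, biotinylated poly(Glu4-Tyr) 30 nM final; PY20 anti-pTyr acceptor and streptavidin donor beads 10 μg/mL; IC50 final conc. 10 μM (FLT3-D835Y, FLT3-ITD) / 100 μM (c-KIT); detection incubations 20 + 60 min RT; 580 nm emission.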

Row | GI50 [1] [µM] | IC50 (c-KIT) [µM] | SMILES
1 | 0.0001 to 10 | 0.0001 to 10 | CC(C)(C#N)CNC(=O)c1cccc(-c2cnc3[nH]c(-c4cnn(CC(F)(F)F)c4)cc3c2)n1 [Compound P-0113, N-(2-cyano-2-methyl-propyl)-6-[2-[1-(2,2,2-trifluoroethyl)pyrazol-4-yl]-1H-pyrrolo[2,3-b]pyridin-5-yl]pyridine-2-carboxamide]
2 | 0.0001 to 10 | 50 to 100 | N#CC1(F)CCN(C(=O)c2cccc(-c3cnc4[nH]c(-c5ccccc5)cc4c3)n2)C1 (stereo not drawn) [Compound P-0115, 3-fluoro-1-[6-(2-phenyl-1H-pyrrolo[2,3-b]pyridin-5-yl)pyridine-2-carbonyl]pyrrolidine-3-carbonitrile]
3 | 0.0001 to 10 | 0.0001 to 10 | N#C[C@H]1CCN(C(=O)c2cccc(-c3cnc4[nH]c(-c5ccccc5)cc4c3)n2)C1 [Compound P-0117, (3S)-1-[6-(2-phenyl-1H-pyrrolo[2,3-b]pyridin-5-yl)pyridine-2-carbonyl]pyrrolidine-3-carbonitrile]
4 | 0.0001 to 10 | 50 to 100 | CC(C)(C#N)NC(=O)c1cccc(-c2cnc3[nH]c(-c4ccccc4)cc3c2)n1 [Compound P-0118, N-(1-cyano-1-methyl-ethyl)-6-(2-phenyl-1H-pyrrolo[2,3-b]pyridin-5-yl)pyridine-2-carboxamide]

Further lines, the molecule ahead of its results:

Row | SMILES | GI50 [1] [µM] | IC50 (c-KIT) [µM]
5 | O=C(c1cccc(-c2cnc3[nH]c(-c4cnn(CC(F)(F)F)c4)cc3c2)n1)N1CCC(F)(F)C1 [Compound P-0112, (3,3-difluoropyrrolidin-1-yl)-[6-[2-[1-(2,2,2-trifluoroethyl)pyrazol-4-yl]-1H-pyrrolo[2,3-b]pyridin-5-yl]-2-pyridyl]methanone] | 0.0001 to 10 | 10 to 50
6 | N#CC1(NC(=O)c2cccc(-c3cnc4[nH]c(-c5ccccc5)cc4c3)n2)CCC1 [Compound P-0114, N-(1-cyanocyclobutyl)-6-(2-phenyl-1H-pyrrolo[2,3-b]pyridin-5-yl)pyridine-2-carboxamide] | 0.0001 to 10 | 50 to 100
7 | CN(CCC#N)C(=O)c1cccc(-c2cnc3[nH]c(-c4ccccc4)cc3c2)n1 [Compound P-0119, N-(2-cyanoethyl)-N-methyl-6-(2-phenyl-1H-pyrrolo[2,3-b]pyridin-5-yl)pyridine-2-carboxamide] | 0.0001 to 10 | 50 to 100
8 | N#CC1CCN(C(=O)c2cccc(-c3cnc4[nH]c(C5=CCCCC5)cc4c3)n2)C1 (stereo not drawn) [Compound P-0120, 1-[6-[2-(cyclohexen-1-yl)-1H-pyrrolo[2,3-b]pyridin-5-yl]pyridine-2-carbonyl]pyrrolidine-3-carbonitrile] | 0.0001 to 10 | 0.0001 to 10
9 | CC(C)(C#N)CNC(=O)c1cccc(-c2cnc3[nH]c(C4=CCCCC4)cc3c2)n1 [Compound P-0123, N-(2-cyano-2-methyl-propyl)-6-[2-(cyclohexen-1-yl)-1H-pyrrolo[2,3-b]pyridin-5-yl]pyridine-2-carboxamide] | 0.0001 to 10 | 0.0001 to 10
